Results as given in patent US9446151B2, “In vivo imaging of enzymatic activity” (Caliper Life Sciences, Inc., priority 2011, dated 2016).

Columns and labels:
[1] = system: MDA-MB-231-luc2 tumor metastases; settings: Nu/Nu mouse, three weeks after intracardiac injection of 1 million MDA-MB-231-luc2 cells; IVIS imaging
Experimental: A Nu/Nu mouse was intracardiacally injected with 1 million of MDA-MB-231-luc2 cells. At three weeks, the mouse was imaged with an IVIS spectrum following intraperitoneal injection of luciferin (150 mg/kg). […] At 24 hours after luciferin injection when the bioluminescence signal returned to a base line level, this mouse was injected intravenously with luminol.
As inflammation is involved in a broad range of disease process, including tumor development, the utility of the NAC compositions and methods was also tested for tumor detection. In a systemic metastases model through intracardiac injection of MDA-MB-231-luc tumor, metastatic tumor development in lungs and knee joints was also evaluated using NAC compositions. Briefly, a Nu/Nu mouse was injected intracardiacally with 1 million MDA-MB-231-luc2 tumor cells. At three weeks, the mouse was imaged with an IVIS spectrum following intraperitoneal injection of luciferin (150 mg/kg). At 24 hours after luciferin injection when the bioluminescence signal returned to a base line level, this mouse was injected intravenously with luminol.

[2] = system: free radical production in the pulmonary tissues; settings: LPS 1 mg/kg intratracheal; intravenous probe; imaging 5 minutes after injection; vs non-LPS control mice given luminol/Quantum dot 800 mixture
Experimental: Animals were divided into three groups of animals.
An acute inflammatory response in pulmonary tissues was induced by intratracheal delivery of LPS to mice. In particular, LPS was dissolved in sterile PBS to a concentration of 10 mg/ml. LPS (in 50 μl total volume) was delivered to mice intratracheally with a 22-gauge intubator. The final dose of LPS was 1 mg/kg. […] Imaging was performed at 5 minutes after injection.

Structure (SMILES) | detection of tumor metastases (loci) [1] | increase of NAC / lung signal from the pulmonary tissues as compared to control mice [2]
O=C(O)[C@H]1CSC(c2nc3ccc(O)cc3s2)=N1 [luciferin] | detected in the lungs, knee joints and cranial region | 
Nc1cccc2c(=O)[nH][nH]c(=O)c12 [luminol] | Tumor metastasis at the knee joint was detected | two
